Broadly, the IC50 is the point on the concentration scale where inhibition reaches its midpoint. Read a high IC50 as lower potency.

Drawing on patent US10562912B2 (C&C Research Laboratories, priority 2013, dated 2020), this text covers IC50 for 14 molecules.

Common to all, as to type: cell-based
Test [1] addresses T1, STAT3 (Homo sapiens, UniProt P40763).
T1 construct: plasmid pSTAT3-TA-luc), which contains a stably operating STAT3 promoter; endogenous in cells
Description: STAT3 reporter gene assay (luciferase), LNCaP stable cell line (pSTAT3-TA-luc), IL-6 stimulation. In outline: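 LNCaP cells stably carrying pSTAT3-TA-luc, in RPMI1640 with 3% DCC-FBS, were treated with compound and then stimulated with 10 ng/mL IL-6 for 24–48 h at 37 °C. Luciferase activity was measured in lysates. A parallel plate measured viability by CellTiter-Glo, with stimulated 0.1% DMSO wells as the positive control.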
A general note: A reporter such as luciferase makes a cellular process visible.

Test [2] concerns LNCaP. In words: Cell growth inhibition assay, prostate cancer cell line LNCaP (medium with 10 ng/mL IL-6). The conditions noted are these: Homo sapiens, medium supplemented with 10 ng/mL of IL-6, 10,000 cells/well.
Test [3] has as its system DU-145. In words: Cell growth inhibition assay, prostate cancer cell line DU-145. The conditions noted are these: Homo sapiens, DU-145 prostate cancer cell line. In short, it runs like this:
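Viability by CellTiter-Glo luminescence after 72–96 h of compound dosing at 37° C. under 5% CO2; DU-145 and HCT116 seeded at 3,000 cells/well, SW626 at 5,000 cells/well.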

Test [4] has as its system HEL92.1.7. Description: Cell growth inhibition assay, blood cancer cell line HEL92.1.7. Particulars: Homo sapiens, HEL 92.1.7, HEL92.1.7 blood cancer cell line. In short, it runs like this: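 Cells were seeded at 3,000/well (HCT116, DU-145) or 5,000/well (SW626 and the others) and exposed to serial compound dilutions for 72 to 96 h at 37 °C under 5% CO2. Viability was read as CellTiter-Glo luminescence against 0.1% DMSO and cell-free wells.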

Test [5] concerns U266. In words: Cell growth inhibition assay, blood cancer cell line U266. Particulars: Homo sapiens, U-266 blood cancer cell line. The procedure: The inhibitory effects of the compounds of the present invention against the growth of cancer cells were evaluated as shown below. The cancer cell lines including stomach cancer cell line (AGS), breast cancer cell lines (MDA-MB-231, MDA-MB-468, and BT-549), prostate cancer cell lines (LNCaP and DU-145), colon cancer cell line (HCT116), ovarian cancer cell line (SW626), liver cancer cell line (Hep3B), kidney cancer cell line (ACHN), lung cancer cell line (NCI-H23) and blood cancer cell lines (HEL92.1.7 and U266) were cultured under the protocol provided by each supplier. A medium supplemented with 10 ng/mL of IL-6 was used for LNCaP, a prostate cancer cell line, when treated with a drug. Each type of cells to be used in experiments were sub-cultured in a 96-well plate by counting the exact number of cells using Tali™ Image-based Cytometer (Life Technologies). In a 96-well plate, AGS, HCT116, and DU-145 were employed with 3,000 cells/well; NCI-H23, SW626, Hep3B, ACHN, BT-549, MDA-MB-231, HEL92.1.7, and U266 were employed with 5,000 cells/well; and LNCaP and MDA-MB-468 were employed with 10,000 cells/well. The cells were treated with the compounds listed in Examples which were diluted in various concentrations. Upon completion of the compounds treatment, AGS, HCT116, SW626, DU145, NCI-H23, Hep3B, ACHN, BT-549, LNCaP, HEL92.1.7, and U266 cells were cultured at 37° C. under 5% CO2 for from 72 to 96 hours, and MDA-MB-231 and MDA-MB-468 cells were cultured at 37° C. in air for from 72 to 96 hours. Subsequently, the cells were observed under microscope and drug precipitation and particular findings were investigated and recorded. And then, the 96-well plate was placed at room temperature for 30 minutes, added with 20 μL/well of CellTiter-Glo solution (Cat No. G7573, Promega) and shaken for 10 minutes, followed by being subjected to the measurement using PHERAstar™ microplate reader (BMG LABTECH) according to the supplier's general luminometer protocol. Wells where only culture liquid added without cell plating were used as a negative control, whereas wells where culture liquid containing 0.1% DMSO instead of the compounds listed in Examples were used as a positive control.

SMILES strings stand for the structures.

T1 sequence (P40763 whole entry): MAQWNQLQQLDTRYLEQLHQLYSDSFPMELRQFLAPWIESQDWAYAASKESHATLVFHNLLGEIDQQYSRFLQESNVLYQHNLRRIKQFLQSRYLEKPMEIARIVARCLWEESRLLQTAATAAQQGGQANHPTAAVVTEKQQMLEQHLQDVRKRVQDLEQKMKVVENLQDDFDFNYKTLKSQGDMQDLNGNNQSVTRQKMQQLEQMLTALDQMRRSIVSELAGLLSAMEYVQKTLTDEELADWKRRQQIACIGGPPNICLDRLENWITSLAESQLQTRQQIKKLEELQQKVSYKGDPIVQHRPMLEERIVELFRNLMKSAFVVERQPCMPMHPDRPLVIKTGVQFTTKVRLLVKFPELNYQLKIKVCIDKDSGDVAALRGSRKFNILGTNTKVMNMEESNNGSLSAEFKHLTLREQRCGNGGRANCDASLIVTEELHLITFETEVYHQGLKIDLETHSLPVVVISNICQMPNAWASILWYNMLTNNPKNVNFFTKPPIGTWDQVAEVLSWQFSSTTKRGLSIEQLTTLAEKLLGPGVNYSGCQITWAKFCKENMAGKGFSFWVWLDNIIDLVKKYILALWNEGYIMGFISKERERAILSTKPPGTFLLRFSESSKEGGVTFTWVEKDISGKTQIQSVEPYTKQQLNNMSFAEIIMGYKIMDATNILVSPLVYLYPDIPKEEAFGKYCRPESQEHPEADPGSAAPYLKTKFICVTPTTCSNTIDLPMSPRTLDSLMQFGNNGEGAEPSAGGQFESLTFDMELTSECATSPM

Consider `COc1cc(OC(F)(F)F)cc(C(C)(C)c2cc(Br)cc(NC(=O)c3cc4cc(NS(C)(=O)=O)cnc4s3)c2)c1` [Example 56, N-(3-bromo-5-(2-(3-methoxy-5-(trifluoromethoxy)phenyl)propan-2-yl)phenyl)-5-(methylsulfonamido)thieno[2,3-b]pyridine-2-carboxamide], for which the IC50 came to 0.072 µM in test [1]; 0.25 µM in test [2]; 0.069 µM in test [3]; 0.3 µM in test [4]; 0.43 µM in test [5].

For `COc1cc(OC(F)(F)F)cc(C(C)(C)c2cc(Cl)cc(NC(=O)c3cc4cc(NS(C)(=O)=O)cnc4s3)c2)c1` [Example 57, N-(3-chloro-5-(2-(3-methoxy-5-(trifluoromethoxy)phenyl)propan-2-yl)phenyl)-5-(methylsulfonamido)thieno[2,3-b]pyridine-2-carboxamide], the IC50 is 0.067 µM in test [1]; 0.16 µM in test [2]; 0.047 µM in test [3]; 0.18 µM in test [4]; 0.33 µM in test [5].

With `CCOc1cc(OC(F)(F)F)cc(C(C)(C)c2cc(Cl)cc(NC(=O)c3cc4cc(NS(C)(=O)=O)ccc4s3)c2)c1` [Example 58, N-(3-chloro-5-(2-(3-ethoxy-5-(trifluoromethoxy)phenyl)propan-2-yl)phenyl)-5-(methylsulfonamido)benzo[b]thiophene-2-carboxamide], the IC50 in test [1] came to 0.007 µM; in test [2], 0.032 µM; in test [3] it was 0.006 µM; in test [4] it was 0.074 µM; in test [5], 0.005 µM.

In the case of `CCOc1cc(OC(F)(F)F)cc(C(C)(C)c2cc(Cl)cc(NC(=O)c3cc4ccc(NS(C)(=O)=O)cc4[nH]3)c2)c1` [Example 59, N-(3-chloro-5-(2-(3-ethoxy-5-(trifluoromethoxy)phenyl)propan-2-yl)phenyl)-6-(methylsulfonamido)-1H-indole-2-carboxamide], the half-inhibitory concentration (IC50) in test [1] is 0.021 µM; in test [2], 0.12 µM; in test [3], 0.039 µM; in test [4] it was 0.42 µM; in test [5], 0.16 µM.

`CCOc1cc(OC(F)(F)F)cc(C(C)(C)c2cc(Br)cc(NC(=O)c3cc4cc(NS(C)(=O)=O)ncc4s3)c2)c1` [Example 61, N-(3-bromo-5-(2-(3-ethoxy-5-(trifluoromethoxy)phenyl)propan-2-yl)phenyl)-5-(methylsulfonamido)thieno[2,3-c]pyridine-2-carboxamide]: the IC50 amounted to 0.066 µM in test [1]; 0.13 µM in test [2]; 0.06 µM in test [3]; 0.14 µM in test [4]; 0.22 µM in test [5].

As for `CC(C)Oc1cc(OC(F)(F)F)cc(C(C)(C)c2cc(Cl)cc(NC(=O)c3cc4cc(NS(C)(=O)=O)cnc4s3)c2)c1` [Example 69, N-(3-chloro-5-(2-(3-isopropoxy-5-(trifluoromethoxy)phenyl)propan-2-yl)phenyl)-5-(methylsulfonamido)thieno[2,3-b]pyridine-2-carboxamide], the IC50 was found to be 0.052 µM in test [1]; 0.058 µM in test [2]; 0.052 µM in test [3]; 0.09 µM in test [4]; 0.14 µM in test [5].

Take `CC(C)Oc1cc(OC(F)(F)F)cc(C(C)(C)c2cc(Cl)cc(NC(=O)c3cc4nc(NS(C)(=O)=O)ccc4s3)c2)c1` [Example 70, N-(3-chloro-5-(2-(3-isopropoxy-5-(trifluoromethoxy)phenyl)propan-2-yl)phenyl)-5-(methylsulfonamido)thieno[3,2-b]pyridine-2-carboxamide]: the IC50 was determined as 0.068 µM in test [1]; 0.29 µM in test [2]; 0.12 µM in test [3]; 0.36 µM in test [4]; 0.46 µM in test [5].

On to `CC(C)Oc1cc(OC(F)(F)F)cc(C(C)(C)c2cc(Cl)cc(NC(=O)c3cc4cc(NS(C)(=O)=O)ncc4s3)c2)c1` [Example 71, N-(3-chloro-5-(2-(3-isopropoxy-5-(trifluoromethoxy)phenyl)propan-2-yl)phenyl)-5-(methylsulfonamido)thieno[2,3-c]pyridine-2-carboxamide], for which the concentration for half-maximal inhibition (IC50) in test [1] was found to be 0.009 µM; in test [2] it was 0.091 µM; in test [3], 0.048 µM; in test [4], 0.13 µM; in test [5] it was 0.17 µM.

Turning to `CC(C)COc1cc(OC(F)(F)F)cc(C(C)(C)c2cc(Cl)cc(NC(=O)c3cc4cc(NS(C)(=O)=O)ccc4s3)c2)c1` [Example 72, N-(3-chloro-5-(2-(3-isobutoxy-5-(trifluoromethoxy)phenyl)propan-2-yl)phenyl)-5-(methylsulfonamido)benzo[b]thiophene-2-carboxamide], the 50% inhibitory concentration (IC50) in test [1] is 0.021 µM; in test [2], 0.034 µM; in test [3] it was 0.006 µM; in test [4], 0.087 µM; in test [5] it was 0.1 µM.

As to `CCCOc1cc(OC(F)(F)F)cc(C(C)(C)c2cc(Cl)cc(NC(=O)c3cc4cc(NS(C)(=O)=O)ccc4s3)c2)c1` [Example 73, N-(3-chloro-5-(2-(3-propoxy-5-(trifluoromethoxy)phenyl)propan-2-yl)phenyl)-5-(methylsulfonamido)benzo[b]thiophene-2-carboxamide], the IC50 in test [1] is 0.01 µM; in test [2], 0.033 µM; in test [3], 0.006 µM; in test [4], 0.056 µM; in test [5] it was 0.058 µM.

With `CC#CCOc1cc(OC(F)(F)F)cc(C(C)(C)c2cc(Cl)cc(NC(=O)c3cc4cc(NS(C)(=O)=O)ccc4s3)c2)c1` [Example 75, N-(3-(2-(3-(but-2-yn-1-yloxy)-5-(trifluoromethoxy)phenyl)propan-2-yl)-5-chlorophenyl)-5-(methylsulfonamido)benzo[b]thiophene-2-carboxamide], the 50% inhibitory concentration (IC50) worked out at 0.008 µM in test [1]; 0.029 µM in test [2]; 0.003 µM in test [3]; 0.02 µM in test [4]; 0.021 µM in test [5].

In the case of `CC(C)(c1cc(Cl)cc(NC(=O)c2cc3cc(NS(C)(=O)=O)ccc3s2)c1)c1cc(OCC#N)cc(OC(F)(F)F)c1` [Example 77, N-(3-chloro-5-(2-(3-(cyanomethoxy)-5-(trifluoromethoxy)phenyl)propan-2-yl)phenyl)-5-(methylsulfonamido)benzo[b]thiophene-2-carboxamide], the concentration for half-maximal inhibition (IC50) in test [1] was 0.12 µM; in test [2], 0.3 µM; in test [3], 0.05 µM; in test [4] it was 0.068 µM; in test [5], 0.22 µM.

As for `CC(C)(c1cc(Cl)cc(NC(=O)c2cc3cc(NS(C)(=O)=O)ccc3s2)c1)c1cc(OC(F)(F)F)cc(OC(F)(F)C(F)F)c1` [Example 80, N-(3-chloro-5-(2-(3-(1,1,2,2-tetrafluoroethoxy)-5-(trifluoromethoxy)phenyl)propan-2-yl)phenyl)-5-(methylsulfonamido)benzo[b]thiophene-2-carboxamide], the 50% inhibitory concentration (IC50) in test [1] was 0.016 µM; in test [2] it was 0.068 µM; in test [3], 0.01 µM; in test [4], 0.057 µM; in test [5], 0.063 µM.

For `CC(C)Oc1cc(OC(F)(F)F)cc(C(C)(C)c2cc(F)cc(NC(=O)c3cc4cc(NS(C)(=O)=O)ccc4s3)c2)c1` [Example 82, N-(3-fluoro-5-(2-(3-isopropoxy-5-(trifluoromethoxy)phenyl)propan-2-yl)phenyl)-5-(methylsulfonamido)benzo[b]thiophene-2-carboxamide], the IC50 in test [1] was found to be 0.024 µM; in test [2], 0.03 µM; in test [3], 0.008 µM; in test [4] it was 0.048 µM; in test [5], 0.045 µM.
